Laboratory results taken from patent US4256765A, “Novel hydroxamic acid compounds, method for preparation thereof and medicaments containing such compounds” (priority 1978, dated 1981).

How the values were obtained:
[1] = Urinary excretion in rats; format: in vivo, SD strain male rats; conditions: rat, po; 100 mg/Kg orally, SD male rats, urine excreted within 24 hours; read-out: Urinary excretion (%) (mean value ± S. E.)
Method: (2) Measurement of urinary excretion in rats
100 mg/Kg of the test compounds were administered orally to the SD strain male rats weighing about 300 g, and urine specimens excreted within 24 hours were collected by cross-over method. Amounts of the test compounds in urine were determined according to the method of Kobashi et al. [Refer to Yakugaku Zasshi 93 (12), 1564-1572 (1973); J. Biochem. 83, 287-293 (1973).]

[2] = molecular target: T1, Urease extracted and purified from sword bean (Canavalia gladiata, UniProt A0AAN9R4W0); assay: Urease inhibitory activity (I50), method of Kobashi et al.; format: biochemical; conditions: read-out: Urease-inhibitory activity I50
T1 construct: nickel homohexamer by analogy with jack bean urease
Method: (1) Measurement of urease inhibitory activity of test compounds
Urease was extracted and purified from sword bean and molar concentrations of the test compounds causing 50% inhibition of urease activity (I50) were determined by the method of Kobashi et al. [Refer to Biochim, Biophys. Acta 227, 429-441 (1971).]

[3] = Acute toxicity (LD50); format: in vivo; conditions: for acute toxicity (in words): rats; for LD50: rat, in vivo
Method: The test compounds were administered orally to SD strain male rats weighing about 270 g and SD strain female rats weighing about 170 g.

[4] = tested on: Salmonela typhimurium TA-98 and TA-100; assay: Mutagenic activity in microbial tests; format: cell-based, Salmonella typhimurium
Method: The screening of mutagenicity was carried out according to Ames test [Refer to Ames B. N. et al.: Proc: Natl. Acad. Sci. U.S.A., 72, 979-983 (1975)] which is now widely utilized all over the world as an examination for detection of mutagenicity.
Using the strain of Salmonela typhimurium TA-98 and TA-100 as the test bacteria, the mutageic activity was examined for the test compounds untreated with S-9 (9,000×g supernatant fraction of the rat liver homogenate induced with PCB) and the test compounds treated with S-9, respectively. The examined concentration of the test compounds was up to 40,000 μg/ml. Dimethyl sulfoxide (DMSO) was used as solvent.
The result of examination was judged to be positive, when the number of reverse mutation colony was twice comparing with the control group and the positive correlation between dosage and mutagenic activity of the test compound was recognized.

[5] = clinical study of urolithiasis; cited from earlier work
[6] = tested on: Proteus mirabilis (OM-1); assay: Inhibitory effect on alkalization of urine; format: cell-based; conditions: for pH value (mean value ± S. E.) 8 hours after inoculation: normal human urine, Proteus mirabilis 2.75×10^5 cells/ml, 37° C.; for inhibition of the alkalization of urine (in words): Proteus mirabilis (OM-1) inoculated to normal human urine
Method: (§1) To 18 ml of normal human urine was added each test compound to make 10^-3 M and 2×10^-4 M test solution in a final concentration.
(§2) On the other hand, distilled water was added to 18 ml of normal human urine instead of the test compound to make a blank solution.
(§3) To the solution was inoculated intact Proteus mirabilis (OM-1) to make a cell suspension of 2.75×10^5 cells/ml and harvested at 37° C. Before inoculation and at 8 hours after inoculation, the pH values of the solution were measured.

[7] = tested on: Proteus mirabilis (OM-1); assay: Inhibitory effect on calculus formation in urine; format: cell-based; conditions: for inhibition of the calculus formation in urine (in words): Proteus mirabilis (OM-1) inoculated to normal human urine; for inhibition at 200 µM / inhibition at 1000 µM: Proteus mirabilis, 8 h, normal human urine, read-out: Inhibitory rate of calculus formation (%) (mean value ± S. E.) 8 hours after inoculation; for inhibition at 200 µM: 2 × 10^-4 M test compound; for inhibition at 1000 µM: 10^-3 M test compound
Method: as §1, §2, §3
Inhibitory rate of calculi formation was calculated by measuring the weight of formed calculi.

T1 sequence (A0AAN9R4W0 entry or part of it): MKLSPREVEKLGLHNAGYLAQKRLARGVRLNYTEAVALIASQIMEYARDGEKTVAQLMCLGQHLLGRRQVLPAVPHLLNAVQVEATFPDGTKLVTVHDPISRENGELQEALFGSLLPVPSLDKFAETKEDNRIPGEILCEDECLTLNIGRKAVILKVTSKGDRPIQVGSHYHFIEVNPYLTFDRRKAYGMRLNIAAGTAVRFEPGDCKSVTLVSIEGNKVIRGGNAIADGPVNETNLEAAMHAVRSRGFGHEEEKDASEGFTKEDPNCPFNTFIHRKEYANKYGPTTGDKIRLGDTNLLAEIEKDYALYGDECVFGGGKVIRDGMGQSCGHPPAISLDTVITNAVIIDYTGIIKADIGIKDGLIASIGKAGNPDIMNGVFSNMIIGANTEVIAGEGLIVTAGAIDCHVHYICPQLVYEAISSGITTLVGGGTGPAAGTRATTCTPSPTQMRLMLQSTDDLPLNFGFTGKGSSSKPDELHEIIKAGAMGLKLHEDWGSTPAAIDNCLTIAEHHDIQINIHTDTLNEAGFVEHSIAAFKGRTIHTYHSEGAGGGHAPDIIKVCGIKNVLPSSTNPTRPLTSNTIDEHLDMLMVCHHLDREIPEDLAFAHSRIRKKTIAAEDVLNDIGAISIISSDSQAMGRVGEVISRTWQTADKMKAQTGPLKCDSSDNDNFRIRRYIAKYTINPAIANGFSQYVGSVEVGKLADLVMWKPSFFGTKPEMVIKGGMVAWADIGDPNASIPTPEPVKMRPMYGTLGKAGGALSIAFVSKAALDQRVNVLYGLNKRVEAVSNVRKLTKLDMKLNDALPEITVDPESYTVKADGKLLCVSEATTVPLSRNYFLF

CCC(C)C(=O)NCC(=O)NO (racemic) [Compound C, N-(DL-2-methyl-n-butyloyl)-glycinohydroxamic acid]
dose excreted at 24 h [1]: 9.25 ± 2.16%
IC50 [2]: 1290 nM
acute toxicity (in words) ([3]; oral): low
LD50 ([3]; oral, SD male and female rats): > 9000 mg/kg

O=C(CNC(=O)c1ccco1)NO [2-(2-furoylamino)-acetohydroxamic acid]
mutagenic activity (in words) [4]: show mutagenecity

CC(=O)Nc1cccc(C(=O)NCC(=O)NO)c1 [2-(meta-acetylaminobenzamide)-acetohydroxamic acid]
mutagenic activity (in words) [4]: show mutagenecity

COc1cccc(C(=O)NCC(=O)NO)c1 [2-(meta-methoxybenzamide)-acetohydroxamic acid]
mutagenic activity (in words) [4]: show mutagenecity

COc1ccc(C(=O)NCC(=O)NO)cc1 [2-(para-methoxybenzamide)-acetohydroxamic acid]
mutagenic activity (in words) [4]: show mutagenecity

O=C(CNC(=O)c1ccc(Cl)cc1)NO [Benurestat, 2-(para-chlorobenzamide)-acetohydroxamic acid]
mutagenic activity (in words) [4]: have the mutagenic activity

CC(=O)NO [CH3 CONHOH, Acetohydroxamic acid]
mutagenic activity (in words) [4]: have the mutagenic activity
decreasing the amount of ammonia in urine and preventing the alkalization of urine (in words) [5]: effective

CC(C)(C)C(=O)NCC(=O)NO [Compound A, N-(pivaloyl)-glycinohydroxamic acid]
dose excreted at 24 h [1]: 14.6 ± 1.82%
IC50 [2]: 4380 nM
acute toxicity (in words) ([3]; oral): low
LD50 ([3]; oral, SD male and female rats): > 9000 mg/kg
pH value (mean value ± S. E.) 8 hours after inoculation ([6]; 2 × 10^-4 M test compound): 8.41 ± 0.007
pH value (mean value ± S. E.) 8 hours after inoculation ([6]; 10^-3 M test compound): 7.33 ± 0.09
inhibition of the alkalization of urine (in words) [6]: inhibited the alkalization of urine
inhibition of the calculus formation in urine (in words) [7]: inhibited
inhibition at 200 µM [7]: 50 ± 5.2%
inhibition at 1000 µM [7]: 82 ± 8.2%

CCC(CC)C(=O)NCC(=O)NO [Compound B, N-(2-ethyl-n-butyloyl)-glycinohydroxamic acid]
dose excreted at 24 h [1]: 5.37 ± 0.852%
IC50 [2]: 790 nM
acute toxicity (in words) ([3]; oral): low
LD50 ([3]; po): > 9000 mg/kg
pH value (mean value ± S. E.) 8 hours after inoculation ([6]; 2 × 10^-4 M test compound): 7.24 ± 0.04
pH value (mean value ± S. E.) 8 hours after inoculation ([6]; 10^-3 M test compound): 6.14 ± 0.01
inhibition of the alkalization of urine (in words) [6]: inhibited the alkalization of urine
inhibition of the calculus formation in urine (in words) [7]: inhibited
inhibition at 200 µM [7]: 93.7 ± 1.6%
inhibition at 1000 µM [7]: 95.7%
